pKi: −log10 of the molar value.
Molecular target: HGFR (c-Met) (Homo sapiens, UniProt P08581)
Assay: HGFR Continuous-Coupled Spectrophotometric Assay
Assay type: biochemical
Conditions: HGFR enzyme 50 nM, Met-2 peptide substrate, 37° C.
In short: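 Human HGFR (50 nM final) phosphorylates the Met-2 activation-loop peptide, with ADP formation coupled through PK/LDH to NADH consumption, read as the A340 decrease over 10 min at 37 °C. Buffer was HEPES pH 7.5 with MgCl2, DTT, PEP and ATP.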

Sequence of HGFR (c-Met) (P08581 974-1390): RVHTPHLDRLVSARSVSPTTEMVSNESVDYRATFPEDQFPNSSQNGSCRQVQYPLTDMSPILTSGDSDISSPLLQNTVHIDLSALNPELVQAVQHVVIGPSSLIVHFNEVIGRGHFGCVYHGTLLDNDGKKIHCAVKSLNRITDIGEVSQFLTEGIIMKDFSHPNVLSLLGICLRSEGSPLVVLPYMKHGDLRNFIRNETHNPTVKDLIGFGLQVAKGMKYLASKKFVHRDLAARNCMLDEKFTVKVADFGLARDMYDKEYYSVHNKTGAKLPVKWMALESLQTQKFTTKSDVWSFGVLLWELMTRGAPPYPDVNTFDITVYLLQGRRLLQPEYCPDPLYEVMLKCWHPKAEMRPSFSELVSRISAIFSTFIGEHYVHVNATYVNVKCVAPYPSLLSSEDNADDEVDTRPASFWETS

How did the pKi turn out when `CC(Oc1cc(-c2ccc3nc(C(=O)N(C)C)cn3c2)cnc1N)c1c(Cl)ccc(F)c1Cl` (stereo not shown) [Example 155, 6-{6-amino-5-[1-(2,6-dichloro-3-fluorophenyl)ethoxy]pyridin-3-yl}-N,N-dimethylimidazo[1,2-a]pyridine-2-carboxamide] was run?
The pKi was 7.40.

Source: patent publication US20060178374A1, “Aminoheteroaryl compounds as protein kinase inhibitors” (AGOURON PHARMACEUTICALS, INC., priority 2004, published 2006)
